Measured values taken from patent publication US9980943B2, “Methods of treating muscular dystrophy” (BOARD OF REGENTS OF THE NEVADA SYSTEM OF HIGHER EDUCATION, …, priority 2013, dated 2018).

Key:
Type in all cases: cell-based, mouse
[1] = tested on: β-galactosidase in CMV-LacZ C2C12 myotubes; assay: CMV-LacZ secondary screen in C2C12 myotubes (β-Gal stabilizing assay); conditions: C2C12 CMV-LacZ myotubes, fold relative to DMSO
Method in brief: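 Dose-response runs at 0.5–40 μM (0.5, 1, 5, 10, 20, 40 μM; N=2 per point) used a clonal C2C12 line carrying CMV-LacZ. Cells were assayed as myoblasts or as differentiated myotubes, and β-galactosidase levels were read with the FDG fluorogenic substrate.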

[2] = tested on: β-galactosidase in CMV-LacZ C2C12 myoblasts; assay: CMV-LacZ secondary screen in C2C12 myoblasts (β-Gal stabilizing assay); conditions: CMV-LacZ C2C12 myoblasts
Method in brief: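 β-gal stabilization was measured in C2C12 myoblasts or myotubes stably transfected with a CMV-driven LacZ construct, using the FDG β-gal assay. Compounds were tested in dose-response at 0.5, 1, 5, 10, 20 and 40 μM, with two replicates per point.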

[3] = tested on: α7 integrin (LacZ reporter in α7+/LacZ myotubes); assay: Myotube α7 integrin FDG assay (Burkin assay in myotubes, 96-well); conditions: myotubes
[4] = tested on: α7 integrin (LacZ reporter in α7βgal+/− myoblasts); assay: Myoblast α7+/LacZ integrin FDG assay (Burkin assay in myoblasts, 96-well); conditions: α7+/LacZ myoblasts, 96-well

With COc1ccc(OC)c(NC(=O)CN2CCC(NC(=O)c3ccccc3C)CC2)c1 [MLS001212882-01] the “CMV-LACZ in Myotubes, signal relative to DMSO” value ([1]; 0.5 uM) was 1.0238, the “CMV-LACZ in Myotubes, signal relative to DMSO” value ([1]; 1 uM) was 0.8705 and the “CMV-LACZ in Myotubes, signal relative to DMSO” value ([1]; 5 uM) was 1.0963. For the same molecule, the “CMV-LACZ in Myotubes, signal relative to DMSO” value ([1]; 10 uM) was 1.1133, the “CMV-LACZ in Myotubes, signal relative to DMSO” value ([1]; 20 uM) was 1.1471 and the “CMV-LACZ in Myotubes, signal relative to DMSO” value ([1]; 40 uM) was 1.3024. For the same molecule, the “CMV-LACZ in Myoblasts (β-galactosidase activity relative to DMSO)” value ([2]; 0.5 uM) was 1.1409, the “CMV-LACZ in Myoblasts (β-galactosidase activity relative to DMSO)” value ([2]; 1 uM) was 1.1291 and the “CMV-LACZ in Myoblasts (β-galactosidase activity relative to DMSO)” value ([2]; 5 uM) was 0.9792. For the same molecule, the “CMV-LACZ in Myoblasts (β-galactosidase activity relative to DMSO)” value ([2]; 10 uM) was 1.0086, the “CMV-LACZ in Myoblasts (β-galactosidase activity relative to DMSO)” value ([2]; 20 uM) was 1.3230 and the “CMV-LACZ in Myoblasts (β-galactosidase activity relative to DMSO)” value ([2]; 40 uM) was 1.0326. The “Burkin Assay in Myotubes, α7 integrin LacZ reporter signal relative to DMSO” value ([3]; 0.5 uM) was 0.9814, the “Burkin Assay in Myotubes, α7 integrin LacZ reporter signal relative to DMSO” value ([3]; 1 uM) was 1.023 and the “Burkin Assay in Myotubes, α7 integrin LacZ reporter signal relative to DMSO” value ([3]; 5 uM) was 0.9072. For the same molecule, the “Burkin Assay in Myotubes, α7 integrin LacZ reporter signal relative to DMSO” value ([3]; 10 uM) was 0.8877, the “Burkin Assay in Myotubes, α7 integrin LacZ reporter signal relative to DMSO” value ([3]; 20 uM) was 0.8421 and the “Burkin Assay in Myotubes, α7 integrin LacZ reporter signal relative to DMSO” value ([3]; 40 uM) was 0.9107. For the same molecule, the “Burkin Assay in Myoblasts, signal relative to DMSO” value ([4]; 0.5 uM) was 1.0132, the “Burkin Assay in Myoblasts, signal relative to DMSO” value ([4]; 1 uM) was 1.07 and the “Burkin Assay in Myoblasts, signal relative to DMSO” value ([4]; 5 uM) was 1.049. The “Burkin Assay in Myoblasts, signal relative to DMSO” value ([4]; 10 uM) was 0.9069, the “Burkin Assay in Myoblasts, signal relative to DMSO” value ([4]; 20 uM) was 1.068 and the “Burkin Assay in Myoblasts, signal relative to DMSO” value ([4]; 40 uM) was 1.048.
For Cc1cccc(C)c1NCC(=O)N1CCN(Cc2ccccc2)CC1.Cl [MLS001176153-01], the “CMV-LACZ in Myotubes, signal relative to DMSO” value ([1]; 0.5 uM) was 0.8316, the “CMV-LACZ in Myotubes, signal relative to DMSO” value ([1]; 1 uM) was 0.9832 and the “CMV-LACZ in Myotubes, signal relative to DMSO” value ([1]; 5 uM) was 0.7944. The “CMV-LACZ in Myotubes, signal relative to DMSO” value ([1]; 10 uM) was 0.9388, the “CMV-LACZ in Myotubes, signal relative to DMSO” value ([1]; 20 uM) was 1.0256 and the “CMV-LACZ in Myotubes, signal relative to DMSO” value ([1]; 40 uM) was 1.0878. The “CMV-LACZ in Myoblasts (β-galactosidase activity relative to DMSO)” value ([2]; 0.5 uM) was 1.2729, the “CMV-LACZ in Myoblasts (β-galactosidase activity relative to DMSO)” value ([2]; 1 uM) was 1.4588 and the “CMV-LACZ in Myoblasts (β-galactosidase activity relative to DMSO)” value ([2]; 5 uM) was 0.8976. The “CMV-LACZ in Myoblasts (β-galactosidase activity relative to DMSO)” value ([2]; 10 uM) was 0.9140, the “CMV-LACZ in Myoblasts (β-galactosidase activity relative to DMSO)” value ([2]; 20 uM) was 0.9322 and the “CMV-LACZ in Myoblasts (β-galactosidase activity relative to DMSO)” value ([2]; 40 uM) was 1.0763. The “Burkin Assay in Myotubes, α7 integrin LacZ reporter signal relative to DMSO” value ([3]; 0.5 uM) was 1.007, the “Burkin Assay in Myotubes, α7 integrin LacZ reporter signal relative to DMSO” value ([3]; 1 uM) was 1.027 and the “Burkin Assay in Myotubes, α7 integrin LacZ reporter signal relative to DMSO” value ([3]; 5 uM) was 0.9538. The “Burkin Assay in Myotubes, α7 integrin LacZ reporter signal relative to DMSO” value ([3]; 10 uM) was 1.106, the “Burkin Assay in Myotubes, α7 integrin LacZ reporter signal relative to DMSO” value ([3]; 20 uM) was 0.9238 and the “Burkin Assay in Myotubes, α7 integrin LacZ reporter signal relative to DMSO” value ([3]; 40 uM) was 0.9818. For the same molecule, the “Burkin Assay in Myoblasts, signal relative to DMSO” value ([4]; 0.5 uM) was 1.06, the “Burkin Assay in Myoblasts, signal relative to DMSO” value ([4]; 1 uM) was 1.045 and the “Burkin Assay in Myoblasts, signal relative to DMSO” value ([4]; 5 uM) was 0.9185. For the same molecule, the “Burkin Assay in Myoblasts, signal relative to DMSO” value ([4]; 10 uM) was 0.8767, the “Burkin Assay in Myoblasts, signal relative to DMSO” value ([4]; 20 uM) was 1.145 and the “Burkin Assay in Myoblasts, signal relative to DMSO” value ([4]; 40 uM) was 1.12.
